Laboratory results reported in ChEMBL document CHEMBL1134014, “Synthesis and biological evaluation of a sialyl Lewis X mimic with significantly improved E-selectin inhibition” (Bioorg Med Chem Lett, 2001).

Columns and labels:
[1] = target: T1, E-selectin (Homo sapiens) (UniProt P16581); settings: 50uM
T1 sequence (whole entry): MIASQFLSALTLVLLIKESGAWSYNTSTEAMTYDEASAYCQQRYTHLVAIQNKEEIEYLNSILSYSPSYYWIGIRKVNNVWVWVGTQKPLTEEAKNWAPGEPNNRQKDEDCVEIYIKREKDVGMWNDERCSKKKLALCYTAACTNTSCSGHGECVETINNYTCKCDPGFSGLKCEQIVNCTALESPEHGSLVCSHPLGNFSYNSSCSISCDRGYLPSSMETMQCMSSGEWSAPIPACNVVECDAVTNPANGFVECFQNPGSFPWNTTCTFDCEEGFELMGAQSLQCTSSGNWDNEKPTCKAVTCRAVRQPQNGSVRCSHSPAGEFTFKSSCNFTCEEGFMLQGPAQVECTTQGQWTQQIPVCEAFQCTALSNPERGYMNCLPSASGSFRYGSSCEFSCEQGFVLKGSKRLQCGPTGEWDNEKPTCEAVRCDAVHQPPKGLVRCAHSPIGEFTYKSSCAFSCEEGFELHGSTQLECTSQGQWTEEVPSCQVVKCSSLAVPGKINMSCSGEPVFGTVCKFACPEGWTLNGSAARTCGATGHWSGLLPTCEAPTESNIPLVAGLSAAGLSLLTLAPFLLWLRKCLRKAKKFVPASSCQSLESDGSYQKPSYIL
Description: Percent inhibition of Selectin E by the compound at a dose of 50uM

[2] = target: T1, E-selectin (Homo sapiens); assay: Relative inhibitory concentration against Selectin E to that of sLex in a static cell free ligand binding assay
[3] = target: T1, E-selectin (Homo sapiens); settings: 10uM
Description: Percent inhibition of Selectin E by the compound at a dose of 10uM

[4] = target: T1, E-selectin (Homo sapiens); settings: 200uM
Description: Percent inhibition of Selectin E by the compound at a dose of 200uM

[5] = target: T2, E-selectin (Homo sapiens, UniProt P16581); assay: Inhibitory concentration against Selectin E in a static cell free ligand binding assay under equilibrium conditions.
T2 sequence (P16581 whole entry): T1 sequence (whole entry)

SMILES	inhibition [1] [%]	Relative IC50 [2]	inhibition [3] [%]	inhibition [4] [%]	IC50 [5] [µM]
COC(=O)CCCCCCCCO[C@@H]1O[C@@H](CO)[C@@H](O[C@@H]2O[C@@H](CO)[C@H](O)[C@H](O[C@@H](CC3CCCCC3)C(=O)O)[C@@H]2O)[C@H](O[C@@H]2O[C@@H](C)[C@@H](O)[C@H](O)[C@@H]2O)[C@@H]1NC(=O)c1ccc(OC)c(OC)c1	93	0.03	54	97	1500
COC(=O)CCCCCCCCO[C@@H]1O[C@@H](CO)[C@@H](O[C@@H]2O[C@@H](CO)[C@H](O)[C@H](O[C@]3(C(=O)O)C[C@@H](O)[C@@H](NC(C)=O)[C@H]([C@@H](O)[C@H](O)CO)O3)[C@@H]2O)[C@H](O[C@@H]2O[C@@H](C)[C@@H](O)[C@H](O)[C@@H]2O)[C@@H]1NC(C)=O	–	1	–	–	–
C[C@@H]1O[C@@H](O[C@@H]2[C@H](CO)OCC[C@H]2O[C@@H]2O[C@@H](CO)[C@H](O)[C@H](OC(CC3CCCCC3)C(=O)O)[C@@H]2O)[C@@H](O)[C@@H](O)[C@@H]1O (single isomer, unassigned)	–	0.031	–	–	–
COC(=O)CCCCCCCCOC1O[C@@H](O)[C@@H](O[C@@H]2O[C@@H](CO)[C@H](O)[C@H](O[C@]3(C(=O)O)C[C@@H](O)[C@@H](NC(C)=O)[C@H]([C@@H](O)[C@H](O)CO)O3)[C@@H]2O)[C@H](O[C@@H]2O[C@@H](C)[C@@H](O)[C@H](O)[C@@H]2O)[C@@H]1NC(=O)c1ccc(OC)c(OC)c1 (some centres undefined)	–	0.164	–	–	–
C[C@@H]1O[C@@H](O[C@@H]2CCCC[C@H]2O[C@@H]2O[C@@H](CO)[C@H](O)[C@H](OC(CC3CCCCC3)C(=O)O)[C@@H]2O)[C@@H](O)[C@@H](O)[C@@H]1O (single isomer, unassigned)	–	0.115	–	–	–
